Consider four compounds from patent US20050130978A1, “Novel crystal of quinoxalinedione derivative anhydride” (priority 2002, published 2005).

The subject of data set [1] is cerebral infarction. The conditions noted are these: focal cerebral ischemia model; Non-Patent References 1 and 2; cited from earlier work.
Data set [2] is described as follows: Storage stability of the bulk. In kind it is physicochemical. The conditions noted are these: should be refrigerated to ensure stability.
The conditions of data set [3]: cited from earlier work.
Data set [4] can be described thus: Hygroscopicity test (time course weight changes under controlled relative humidity at 25° C.). In kind it is physicochemical. Details: Time course weight changes: unit not given here. Particulars: for Hygroscopicity: ˜0% to 93% RH, up to 7 days. As for the experimental part: About 1 g each of the compound (I) and the compound (II) of anhydride compound A were weighed accurately in weighing bottles (seven) of known weight, then stored under the following conditions at 25° C., and time course weight changes were measured.
RH herein means relative humidity.

In data set [5] the test system is AMPA receptor. Particulars: tautomer, salt, hydrate or solvate; Patent Reference 1; cited from earlier work.
The test system of data set [6] is audiogenic seizure. The conditions noted are these: DBA/2 mouse; tautomer, salt, hydrate or solvate; Patent Reference 1; cited from earlier work.
Data set [7] deals with kainic acid neurotoxicity. The conditions noted are these: tautomer, salt, hydrate or solvate; Patent Reference 1; cited from earlier work.
Setting [8] is: ˜0% RH (silica gel), 25° C., Day 1.
Where [9] appears, read: ˜0% RH (silica gel), 25° C., Day 2.
Where [10] appears, read: ˜0% RH (silica gel), 25° C., Day 4.
[11] abbreviates: ˜0% RH (silica gel), 25° C., Day 7.

`O=C(O)Cn1c(=O)c(=O)[nH]c2cc([N+](=O)[O-])c(-n3ccnc3)cc21` [1 hydrate of the compound A, [7-(1H-imidazol-1-yl)-6-nitro-2,3-dioxo-3,4-dihydroquinoxalin-1(2H)-yl]acetic acid]: the “Reducing effect on the volume of cerebral infarction” value in data set [1] is on record as “excellent reducing effect”. Also, in data set [2], the “Storage stability (impurities)” value is on record as “may increase impurities depending on storage condition”. In data set [3] (Non-Patent References 1 and 2), the Water-solubility entry is recorded as “high water-solubility”.

On to `O=C(O)Cn1c(=O)c(=O)[nH]c2cc([N+](=O)[O-])c(-n3ccnc3)cc21` [compound (I), [7-(1H-imidazol-1-yl)-6-nitro-2,3-dioxo-3,4-dihydroquinoxalin-1(2H)-yl]acetic acid], for which the Stability against humidity result in data set [4] is recorded as “excellent stability against humidity”. The “Time course weight changes” value was determined as 0.09 in data set [4] (33% RH, 25° C., Day 1); 0.06 in data set [4] (33% RH, 25° C., Day 2); 0.10 in data set [4] (33% RH, 25° C., Day 4); 0.08 in data set [4] (33% RH, 25° C., Day 7); 0.03 in data set [4] (51% RH, 25° C., Day 1); 0.04 in data set [4] (51% RH, 25° C., Day 2). The “Time course weight changes” value was 0.10 in data set [4] (51% RH, 25° C., Day 4); 0.09 in data set [4] (51% RH, 25° C., Day 7); 0.03 in data set [4] (63.5% RH, 25° C., Day 1); 0.06 in data set [4] (63.5% RH, 25° C., Day 2); 0.10 in data set [4] (63.5% RH, 25° C., Day 4); 0.11 in data set [4] (63.5% RH, 25° C., Day 7). The “Time course weight changes” value in data set [4] (75% RH, 25° C., Day 1) is recorded as 0.04; in data set [4] (75% RH, 25° C., Day 2), 0.07; in data set [4] (75% RH, 25° C., Day 4), 0.13; in data set [4] (75% RH, 25° C., Day 7), 0.10; in data set [4] (84% RH, 25° C., Day 1) it was 0.05; in data set [4] (84% RH, 25° C., Day 2), 0.09. The “Time course weight changes” value in data set [4] (84% RH, 25° C., Day 4) is given as 0.11; in data set [4] (84% RH, 25° C., Day 7) it was 0.13; in data set [4] (93% RH, 25° C., Day 1), 0.09; in data set [4] (93% RH, 25° C., Day 2), 0.10; in data set [4] (93% RH, 25° C., Day 4) it was 0.15; in data set [4] (93% RH, 25° C., Day 7), 0.13. Further, the “Time course weight changes” value in data set [4] (setting [8]) is on record as 0.03; in data set [4] (setting [9]), −0.01; in data set [4] (setting [10]), 0.02; in data set [4] (setting [11]), 0.01. Also, the Hygroscopicity result in data set [4] (25° C.) is given as “stable under any relative humidity conditions almost without showing hygroscopicity”.

As for `O=C(O)Cn1c(=O)c(=O)[nH]c2cc([N+](=O)[O-])c(-n3ccnc3)cc21` [compound (II), [7-(1H-imidazol-1-yl)-6-nitro-2,3-dioxo-3,4-dihydroquinoxalin-1(2H)-yl]acetic acid], in data set [4], the Stability against humidity entry is “unstable against humidity”. The “Time course weight changes” value amounted to 5.26 in data set [4] (33% RH, 25° C., Day 1); 5.29 in data set [4] (33% RH, 25° C., Day 2); 5.32 in data set [4] (33% RH, 25° C., Day 4); 5.33 in data set [4] (33% RH, 25° C., Day 7); 5.39 in data set [4] (51% RH, 25° C., Day 1); 5.39 in data set [4] (51% RH, 25° C., Day 2). Further, the “Time course weight changes” value came out at 5.40 in data set [4] (51% RH, 25° C., Day 4); 5.38 in data set [4] (51% RH, 25° C., Day 7); 5.47 in data set [4] (63.5% RH, 25° C., Day 1); 5.47 in data set [4] (63.5% RH, 25° C., Day 2); 5.49 in data set [4] (63.5% RH, 25° C., Day 4); 5.49 in data set [4] (63.5% RH, 25° C., Day 7). Moreover, the “Time course weight changes” value in data set [4] (75% RH, 25° C., Day 1) came out at 5.47; in data set [4] (75% RH, 25° C., Day 2) it was 5.47; in data set [4] (75% RH, 25° C., Day 4) it was 5.51; in data set [4] (75% RH, 25° C., Day 7), 5.46; in data set [4] (84% RH, 25° C., Day 1) it was 5.51; in data set [4] (84% RH, 25° C., Day 2) it was 5.52. Moreover, the “Time course weight changes” value in data set [4] (84% RH, 25° C., Day 4) is recorded as 5.52; in data set [4] (84% RH, 25° C., Day 7), 5.51; in data set [4] (93% RH, 25° C., Day 1) it was 5.52; in data set [4] (93% RH, 25° C., Day 2), 5.49; in data set [4] (93% RH, 25° C., Day 4) it was 5.54; in data set [4] (93% RH, 25° C., Day 7), 5.51. For the same compound, the “Time course weight changes” value is 0.09 in data set [4] (setting [8]), 0.08 in data set [4] (setting [9]), 0.07 in data set [4] (setting [10]) and 0.04 in data set [4] (setting [11]). Further, the Absorbed water in data set [4] (after one day, at least 33% RH or more, 25° C.) was 1 mol water per mol compound. The Hygroscopicity entry in data set [4] (25° C.) is reported as “strong hygroscopicity”.

Regarding `O=C(O)Cn1c(=O)c(=O)[nH]c2cc([N+](=O)[O-])c(-n3ccnc3)cc21` [compound A, [7-(1H-imidazol-1-yl)-6-nitro-2,3-dioxo-3,4-dihydroquinoxalin-1(2H)-yl]acetic acid], the “Affinity for the AMPA receptor” value in data set [5] is recorded as “high affinity”. For the same compound, the “Anticonvulsant effect for audiogenic seizure” value in data set [6] is “potent activities”. In data set [3] (Patent Reference 1), the Solubility result is listed as “excellent solubility”. Moreover, in data set [7], the “Inhibitory action against kainic acid neurotoxicity” value is recorded as “potent activities”.
